Source: PubChem BioAssay (NCI)
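All cell lines were grown in 96-well plates and treated with compound for 48 hours. GI50 is the concentration that inhibits growth by half. TGI: concentration producing complete growth inhibition.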

How the values were obtained:
Assay in all cases: growth of human tumour cells (NCI), 48 h
786-0 renal = tested on: 786-0 renal
A498 renal = tested on: A498 renal
A549 NSCLC = tested on: A549 NSCLC
ACHN renal = tested on: ACHN renal
BT-549 breast = tested on: BT-549 breast
CAKI-1 renal = tested on: CAKI-1 renal
CCRF-CEM leukemia = tested on: CCRF-CEM leukemia
COLO 205 colon = tested on: COLO 205 colon
DU-145 prostate = tested on: DU-145 prostate
EKVX NSCLC = tested on: EKVX NSCLC
HCC-2998 colon = tested on: HCC-2998 colon
HCT-116 colon = tested on: HCT-116 colon
HCT-15 colon = tested on: HCT-15 colon
HL-60(TB) leukemia = tested on: HL-60(TB) leukemia
HOP-62 NSCLC = tested on: HOP-62 NSCLC
HOP-92 NSCLC = tested on: HOP-92 NSCLC
HS 578T breast = tested on: HS 578T breast
HT29 colon = tested on: HT29 colon
IGROV1 ovarian = tested on: IGROV1 ovarian
K-562 leukemia = tested on: K-562 leukemia
KM12 colon = tested on: KM12 colon
LOX IMVI melanoma = tested on: LOX IMVI melanoma
M14 melanoma = tested on: M14 melanoma
MALME-3M melanoma = tested on: MALME-3M melanoma
MCF7 breast = tested on: MCF7 breast
MDA-MB-231 breast = tested on: MDA-MB-231 breast
MDA-MB-435 = tested on: MDA-MB-435
MDA-MB-468 breast = tested on: MDA-MB-468 breast
MOLT-4 leukemia = tested on: MOLT-4 leukemia
NCI-H226 lung = tested on: NCI-H226 lung
NCI-H23 lung = tested on: NCI-H23 lung
NCI-H460 lung = tested on: NCI-H460 lung
NCI-H522 lung = tested on: NCI-H522 lung
NCI/ADR-RES ovarian = tested on: NCI/ADR-RES ovarian
OVCAR-3 ovarian = tested on: OVCAR-3 ovarian
OVCAR-4 ovarian = tested on: OVCAR-4 ovarian
OVCAR-5 ovarian = tested on: OVCAR-5 ovarian
OVCAR-8 ovarian = tested on: OVCAR-8 ovarian
PC-3 prostate = tested on: PC-3 prostate
RPMI-8226 leukemia = tested on: RPMI-8226 leukemia
RXF 393 renal = tested on: RXF 393 renal
SF-268 CNS = tested on: SF-268 CNS
SF-295 CNS = tested on: SF-295 CNS
SF-539 CNS = tested on: SF-539 CNS
SK-MEL-2 melanoma = tested on: SK-MEL-2 melanoma
SK-MEL-28 melanoma = tested on: SK-MEL-28 melanoma
SK-MEL-5 melanoma = tested on: SK-MEL-5 melanoma
SK-OV-3 ovarian = tested on: SK-OV-3 ovarian
SN12C renal = tested on: SN12C renal
SNB-19 CNS = tested on: SNB-19 CNS
SNB-75 CNS = tested on: SNB-75 CNS
SR leukemia = tested on: SR leukemia
SW-620 colon = tested on: SW-620 colon
T-47D breast = tested on: T-47D breast
TK-10 renal = tested on: TK-10 renal
U251 CNS = tested on: U251 CNS
UACC-257 melanoma = tested on: UACC-257 melanoma
UACC-62 melanoma = tested on: UACC-62 melanoma
UO-31 renal = tested on: UO-31 renal

COc1cc(-c2nc3ccc(C)cc3[nH]2)ccc1OCc1nnc(-c2ccc(Br)cc2)o1
GI50 (786-0 renal): 16.6 µM | TGI (786-0 renal): 45.5 µM | GI50 (A498 renal): 30.3 µM | TGI (A498 renal): 93.3 µM | GI50 (A549 NSCLC): 31 µM | TGI (A549 NSCLC): > 100 µM | GI50 (ACHN renal): 27.2 µM | TGI (ACHN renal): > 100 µM | GI50 (BT-549 breast): 21.3 µM | TGI (BT-549 breast): 48.8 µM | GI50 (CAKI-1 renal): 25.5 µM | TGI (CAKI-1 renal): > 100 µM | GI50 (CCRF-CEM leukemia): 28.3 µM | TGI (CCRF-CEM leukemia): > 100 µM | GI50 (COLO 205 colon): 27.1 µM | TGI (COLO 205 colon): > 100 µM | GI50 (DU-145 prostate): 51.7 µM | TGI (DU-145 prostate): > 100 µM | GI50 (EKVX NSCLC): 18.9 µM | TGI (EKVX NSCLC): > 100 µM | GI50 (HCC-2998 colon): 26.2 µM | TGI (HCC-2998 colon): > 100 µM | GI50 (HCT-116 colon): 25.4 µM | TGI (HCT-116 colon): > 100 µM | GI50 (HCT-15 colon): 12.2 µM | TGI (HCT-15 colon): 85.7 µM | GI50 (HL-60(TB) leukemia): 18.6 µM | TGI (HL-60(TB) leukemia): 39 µM | GI50 (HOP-62 NSCLC): 28.4 µM | TGI (HOP-62 NSCLC): > 100 µM | GI50 (HOP-92 NSCLC): 15.6 µM | TGI (HOP-92 NSCLC): > 100 µM | GI50 (HS 578T breast): 12.5 µM | TGI (HS 578T breast): 45.4 µM | GI50 (HT29 colon): 10.8 µM | TGI (HT29 colon): 53.6 µM | GI50 (IGROV1 ovarian): 16.3 µM | TGI (IGROV1 ovarian): > 100 µM | GI50 (K-562 leukemia): 15.4 µM | TGI (K-562 leukemia): > 100 µM | GI50 (KM12 colon): 55.1 µM | TGI (KM12 colon): > 100 µM | GI50 (LOX IMVI melanoma): 12.1 µM | TGI (LOX IMVI melanoma): 27.5 µM | GI50 (M14 melanoma): 40.2 µM | TGI (M14 melanoma): > 100 µM | GI50 (MALME-3M melanoma): 12.4 µM | TGI (MALME-3M melanoma): 28.7 µM | GI50 (MCF7 breast): 4.28 µM | TGI (MCF7 breast): 70.7 µM | GI50 (MDA-MB-231 breast): 14.4 µM | TGI (MDA-MB-231 breast): 33.1 µM | GI50 (MDA-MB-435): 18.7 µM | TGI (MDA-MB-435): 53.3 µM | GI50 (MDA-MB-468 breast): 14 µM | TGI (MDA-MB-468 breast): 30.9 µM | GI50 (MOLT-4 leukemia): 6.86 µM | TGI (MOLT-4 leukemia): > 100 µM | GI50 (NCI-H226 lung): 15.3 µM | TGI (NCI-H226 lung): > 100 µM | GI50 (NCI-H23 lung): 32 µM | TGI (NCI-H23 lung): > 100 µM | GI50 (NCI-H460 lung): 27.8 µM | TGI (NCI-H460 lung): > 100 µM | GI50 (NCI-H522 lung): 17.1 µM | TGI (NCI-H522 lung): 45 µM | GI50 (NCI/ADR-RES ovarian): 19.3 µM | TGI (NCI/ADR-RES ovarian): > 100 µM | GI50 (OVCAR-3 ovarian): 20.5 µM | TGI (OVCAR-3 ovarian): 52.9 µM | GI50 (OVCAR-4 ovarian): 14.3 µM | TGI (OVCAR-4 ovarian): 38.4 µM | GI50 (OVCAR-5 ovarian): 57.2 µM | TGI (OVCAR-5 ovarian): > 100 µM | GI50 (OVCAR-8 ovarian): 16.1 µM | TGI (OVCAR-8 ovarian): 45.3 µM | GI50 (PC-3 prostate): 40.3 µM | TGI (PC-3 prostate): > 100 µM | GI50 (RPMI-8226 leukemia): 8.54 µM | TGI (RPMI-8226 leukemia): > 100 µM | GI50 (RXF 393 renal): 20.4 µM | TGI (RXF 393 renal): 59.8 µM | GI50 (SF-268 CNS): 36.1 µM | TGI (SF-268 CNS): > 100 µM | GI50 (SF-295 CNS): 14.9 µM | TGI (SF-295 CNS): 34.8 µM | GI50 (SF-539 CNS): 12.6 µM | TGI (SF-539 CNS): 26.7 µM | GI50 (SK-MEL-2 melanoma): 27.7 µM | TGI (SK-MEL-2 melanoma): > 100 µM | GI50 (SK-MEL-28 melanoma): 22.2 µM | TGI (SK-MEL-28 melanoma): > 100 µM | GI50 (SK-MEL-5 melanoma): 11.8 µM | TGI (SK-MEL-5 melanoma): 34.1 µM | GI50 (SK-OV-3 ovarian): 23.6 µM | TGI (SK-OV-3 ovarian): > 100 µM | GI50 (SN12C renal): 29.9 µM | TGI (SN12C renal): > 100 µM | GI50 (SNB-19 CNS): 52.3 µM | TGI (SNB-19 CNS): > 100 µM | GI50 (SNB-75 CNS): 12.2 µM | TGI (SNB-75 CNS): 56.8 µM | GI50 (SR leukemia): 10.9 µM | TGI (SR leukemia): 56.4 µM | GI50 (SW-620 colon): 32.8 µM | TGI (SW-620 colon): > 100 µM | GI50 (T-47D breast): 7.33 µM | TGI (T-47D breast): 34.4 µM | GI50 (TK-10 renal): 27.6 µM | TGI (TK-10 renal): 94.7 µM | GI50 (U251 CNS): 15.2 µM | TGI (U251 CNS): 55.4 µM | GI50 (UACC-257 melanoma): 17.3 µM | TGI (UACC-257 melanoma): 46.6 µM | GI50 (UACC-62 melanoma): 20.1 µM | TGI (UACC-62 melanoma): > 100 µM | GI50 (UO-31 renal): 11.1 µM | TGI (UO-31 renal): > 100 µM
